Assay results from ChEMBL document CHEMBL1201862, “PubChem BioAssay data set” (2004).
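Exposure lasted 48 hours, with cells grown in 96-well plates and compounds tested at five concentrations. The concentration for 50% growth inhibition is given as GI50.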 Active and inactive are the calls of the source. No stated cut-off is given here; in the data, active = GI50 up to about 1.1 µM and inactive = higher.

Assays:
Experiment in all cases: inhibition of tumour cell growth, NCI panel, 48 h
MDA-N = tested on: MDA-N
SF-539 = tested on: SF-539
TK-10 = tested on: TK-10
HCT-15 = tested on: HCT-15
NCI-H460 = tested on: NCI-H460
Malme-3M = tested on: Malme-3M
SR = tested on: SR
SK-MEL-2 = tested on: SK-MEL-2
KM12 = tested on: KM12
MDA-MB-435 = tested on: MDA-MB-435
UACC-257 = tested on: UACC-257
MOLT-4 = tested on: MOLT-4
COLO 205 = tested on: COLO 205
HL-60 = tested on: HL-60
EKVX = tested on: EKVX
NCI-H522 = tested on: NCI-H522
RPMI-8226 = tested on: RPMI-8226
786-0 = tested on: 786-0
CAKI-1 = tested on: CAKI-1
DU-145 = tested on: DU-145
K562 = tested on: K562
SK-MEL-28 = tested on: SK-MEL-28
NCI-H23 = tested on: NCI-H23
U-251 = tested on: U-251
OVCAR-8 = tested on: OVCAR-8
SF-268 = tested on: SF-268
SNB-75 = tested on: SNB-75
UO-31 = tested on: UO-31
CCRF-CEM = tested on: CCRF-CEM
SW-620 = tested on: SW-620
SN12C = tested on: SN12C
SK-OV-3 = tested on: SK-OV-3
BT-549 = tested on: BT-549
RXF 393 = tested on: RXF 393
SK-MEL-5 = tested on: SK-MEL-5
OVCAR-3 = tested on: OVCAR-3
HOP-62 = tested on: HOP-62
HCT-116 = tested on: HCT-116
OVCAR-5 = tested on: OVCAR-5
ACHN = tested on: ACHN
PC-3 = tested on: PC-3
A498 = tested on: A498
MDA-MB-231 = tested on: MDA-MB-231
UACC-62 = tested on: UACC-62
Hs-578T = tested on: Hs-578T
M14 = tested on: M14
T47D = tested on: T47D
A549 = tested on: A549
HT-29 = tested on: HT-29
HOP-92 = tested on: HOP-92
MCF7 = tested on: MCF7
NCI/ADR-RES = tested on: NCI/ADR-RES
LOX IMVI = tested on: LOX IMVI
SF-295 = tested on: SF-295
SNB-19 = tested on: SNB-19
IGROV-1 = tested on: IGROV-1
OVCAR-4 = tested on: OVCAR-4
NCI-H226 = tested on: NCI-H226

## c1ccc2cc(OCC3CO3)c(OCC3CO3)cc2c1 (centres undefined)
MDA-N
  GI50: 10.1 µM (inactive)
SF-539
  GI50: 2.65 µM (inactive)
TK-10
  GI50: 12.1 µM (inactive)
HCT-15
  GI50: 4.63 µM
NCI-H460
  GI50: 4.2 µM (inactive)
Malme-3M
  GI50: 7.64 µM (inactive)
SR
  GI50: 0.333 µM (active)
SK-MEL-2
  GI50: 10.9 µM (inactive)
KM12
  GI50: 5.7 µM (inactive)
MDA-MB-435
  GI50: 10.1 µM (inactive)
UACC-257
  GI50: 10.2 µM (inactive)
MOLT-4
  GI50: 0.562 µM (active)
COLO 205
  GI50: 12.8 µM (inactive)
HL-60
  GI50: 1.53 µM (inactive)
EKVX
  GI50: 11.4 µM (inactive)
NCI-H522
  GI50: 1.87 µM (inactive)
RPMI-8226
  GI50: 1.92 µM (inactive)
786-0
  GI50: 1.54 µM (inactive)
CAKI-1
  GI50: 4.09 µM (inactive)
DU-145
  GI50: 3.85 µM (inactive)
K562
  GI50: 3.73 µM (inactive)
SK-MEL-28
  GI50: 11.9 µM (inactive)
NCI-H23
  GI50: 2.72 µM (inactive)
U-251
  GI50: 2.9 µM (inactive)
OVCAR-8
  GI50: 2.94 µM (inactive)
SF-268
  GI50: 0.891 µM (active)
SNB-75
  GI50: 4.84 µM (inactive)
UO-31
  GI50: 2.37 µM (inactive)
CCRF-CEM
  GI50: 0.16 µM (active)
SW-620
  GI50: 1.91 µM (inactive)
SN12C
  GI50: 2.37 µM (inactive)
SK-OV-3
  GI50: 10.6 µM (inactive)
BT-549
  GI50: 1.45 µM (inactive)
RXF 393
  GI50: < 0.01 µM (active)
SK-MEL-5
  GI50: 9.23 µM (inactive)
OVCAR-3
  GI50: 13.4 µM (inactive)
HOP-62
  GI50: 1.43 µM (inactive)
HCT-116
  GI50: 1.3 µM (inactive)
OVCAR-5
  GI50: 11.4 µM (inactive)
ACHN
  GI50: 2.18 µM (inactive)
PC-3
  GI50: 12.7 µM (inactive)
A498
  GI50: 2 µM (inactive)
MDA-MB-231
  GI50: 14.5 µM (inactive)
UACC-62
  GI50: 2.84 µM (inactive)
Hs-578T
  GI50: 3.89 µM (inactive)
M14
  GI50: 1.64 µM (inactive)
T47D
  GI50: 10.9 µM (inactive)
A549
  GI50: 3.68 µM (inactive)
HT-29
  GI50: 7.05 µM (inactive)
HOP-92
  GI50: 8.55 µM (inactive)
MCF7
  GI50: 0.388 µM (active)
NCI/ADR-RES
  GI50: 4.05 µM (inactive)
LOX IMVI
  GI50: 1.03 µM (active)
SF-295
  GI50: 2.21 µM (inactive)
SNB-19
  GI50: 5.3 µM (inactive)
IGROV-1
  GI50: 1.3 µM (inactive)

## CN(C)c1ccc(/C=N/c2ccc(-c3nc4ccccc4[nH]3)cc2)cc1
MDA-N
  GI50: > 100 µM (inactive)
SF-539
  GI50: 90.4 µM (inactive)
TK-10
  GI50: > 100 µM (inactive)
HCT-15
  GI50: 24.6 µM
NCI-H460
  GI50: 51.8 µM (inactive)
Malme-3M
  GI50: 24.3 µM (inactive)
SR
  GI50: 12.9 µM (inactive)
SK-MEL-2
  GI50: > 100 µM (inactive)
KM12
  GI50: 32.5 µM (inactive)
MDA-MB-435
  GI50: > 100 µM (inactive)
UACC-257
  GI50: > 100 µM (inactive)
MOLT-4
  GI50: 25.7 µM (inactive)
COLO 205
  GI50: 60.8 µM (inactive)
HL-60
  GI50: 24.7 µM (inactive)
EKVX
  GI50: > 100 µM (inactive)
NCI-H522
  GI50: 56 µM (inactive)
RPMI-8226
  GI50: 36.1 µM (inactive)
786-0
  GI50: 74.8 µM (inactive)
CAKI-1
  GI50: > 100 µM (inactive)
DU-145
  GI50: 65.8 µM (inactive)
K562
  GI50: 35 µM (inactive)
SK-MEL-28
  GI50: > 100 µM (inactive)
NCI-H23
  GI50: > 100 µM (inactive)
U-251
  GI50: 39.2 µM (inactive)
OVCAR-8
  GI50: > 100 µM (inactive)
OVCAR-4
  GI50: 35.9 µM (inactive)
SF-268
  GI50: 60 µM (inactive)
SNB-75
  GI50: 33.7 µM (inactive)
UO-31
  GI50: 56.4 µM (inactive)
CCRF-CEM
  GI50: 37.7 µM (inactive)
SW-620
  GI50: 32.4 µM (inactive)
SN12C
  GI50: 40.6 µM (inactive)
SK-OV-3
  GI50: > 100 µM (inactive)
NCI-H226
  GI50: > 100 µM (inactive)
BT-549
  GI50: 19.3 µM (inactive)
RXF 393
  GI50: 24.2 µM (inactive)
SK-MEL-5
  GI50: 56.9 µM (inactive)
OVCAR-3
  GI50: 71.1 µM (inactive)
HOP-62
  GI50: > 100 µM (inactive)
HCT-116
  GI50: 43.6 µM (inactive)
OVCAR-5
  GI50: > 100 µM (inactive)
ACHN
  GI50: 59.3 µM (inactive)
PC-3
  GI50: 53.6 µM (inactive)
A498
  GI50: 69.5 µM (inactive)
MDA-MB-231
  GI50: 32.8 µM (inactive)
Hs-578T
  GI50: 63 µM (inactive)
M14
  GI50: > 100 µM (inactive)
T47D
  GI50: 31.3 µM (inactive)
A549
  GI50: > 100 µM (inactive)
HT-29
  GI50: 39.5 µM (inactive)
HOP-92
  GI50: > 100 µM (inactive)
MCF7
  GI50: 46.9 µM (inactive)
NCI/ADR-RES
  GI50: 1.09 µM (active)
LOX IMVI
  GI50: 51.5 µM (inactive)
SF-295
  GI50: 46.6 µM (inactive)
SNB-19
  GI50: 40 µM (inactive)
IGROV-1
  GI50: 47.1 µM (inactive)

## Cc1ccc(S(=O)(=O)NC(=N)N(C)N=O)cc1
MDA-N
  GI50: > 100 µM (inactive)
SF-539
  GI50: > 100 µM (inactive)
TK-10
  GI50: > 100 µM (inactive)
HCT-15
  GI50: > 100 µM
NCI-H460
  GI50: 18.9 µM (inactive)
Malme-3M
  GI50: > 100 µM (inactive)
SR
  GI50: > 100 µM (inactive)
SK-MEL-2
  GI50: > 100 µM (inactive)
KM12
  GI50: > 100 µM (inactive)
MDA-MB-435
  GI50: > 100 µM (inactive)
UACC-257
  GI50: > 100 µM (inactive)
MOLT-4
  GI50: > 100 µM (inactive)
COLO 205
  GI50: 28.1 µM (inactive)
HL-60
  GI50: > 100 µM (inactive)
EKVX
  GI50: 85.9 µM (inactive)
NCI-H522
  GI50: > 100 µM (inactive)
RPMI-8226
  GI50: > 100 µM (inactive)
786-0
  GI50: > 100 µM (inactive)
CAKI-1
  GI50: > 100 µM (inactive)
DU-145
  GI50: > 100 µM (inactive)
K562
  GI50: > 100 µM (inactive)
SK-MEL-28
  GI50: > 100 µM (inactive)
NCI-H23
  GI50: > 100 µM (inactive)
U-251
  GI50: > 100 µM (inactive)
OVCAR-8
  GI50: > 100 µM (inactive)
OVCAR-4
  GI50: > 100 µM (inactive)
SF-268
  GI50: > 100 µM (inactive)
SNB-75
  GI50: 38.2 µM (inactive)
UO-31
  GI50: > 100 µM (inactive)
CCRF-CEM
  GI50: > 100 µM (inactive)
SW-620
  GI50: > 100 µM (inactive)
SN12C
  GI50: > 100 µM (inactive)
SK-OV-3
  GI50: 18.5 µM (inactive)
NCI-H226
  GI50: > 100 µM (inactive)
BT-549
  GI50: > 100 µM (inactive)
RXF 393
  GI50: > 100 µM (inactive)
OVCAR-3
  GI50: > 100 µM (inactive)
HOP-62
  GI50: > 100 µM (inactive)
HCT-116
  GI50: > 100 µM (inactive)
OVCAR-5
  GI50: > 100 µM (inactive)
PC-3
  GI50: > 100 µM (inactive)
A498
  GI50: 71.4 µM (inactive)
MDA-MB-231
  GI50: > 100 µM (inactive)
UACC-62
  GI50: 26.4 µM (inactive)
Hs-578T
  GI50: > 100 µM (inactive)
M14
  GI50: > 100 µM (inactive)
T47D
  GI50: > 100 µM (inactive)
A549
  GI50: 19.1 µM (inactive)
HT-29
  GI50: > 100 µM (inactive)
HOP-92
  GI50: 84.1 µM (inactive)
MCF7
  GI50: > 100 µM (inactive)
NCI/ADR-RES
  GI50: > 100 µM (inactive)
LOX IMVI
  GI50: > 100 µM (inactive)
SF-295
  GI50: > 100 µM (inactive)
SNB-19
  GI50: > 100 µM (inactive)
IGROV-1
  GI50: > 100 µM (inactive)
